Source: ChEMBL document CHEMBL4715724, “Novel 5-substituted-2-anilinoquinolines with 3-(morpholino or 4-methylpiperazin-1-yl)propoxy moiety as broad spectrum antiproliferative agents: Synthesis, cell based assays and kinase screening” (Bioorg Med Chem Lett, 2016)

Tests used:
U-251 = test: cells; format: functional; conditions: Homo sapiens, time 48 hrs
Description: Growth inhibition of human U-251 cells incubated for 48 hrs by sulforhodamine B assay

LOX IMVI [1] = test: Growth inhibition of human LOX IMVI cells assessed as growth percentage at 10 uM measured after 48 hrs by sulforhodamine B assay relative to control; format: functional; conditions: read-out: Activity
[2] = molecular target: Ephrin type-B receptor 4 (Homo sapiens) (UniProt P54760); test: Inhibition of human EphB4 at 10 uM relative to control
[3] = molecular target: T1, High affinity nerve growth factor receptor (Homo sapiens, UniProt P04629); test: Inhibition of recombinant N-terminal His6-tagged human TrkA (440 to end residues) expressed in baculovirus infected Sf21 insect cells
HCT-15 = test: cells; format: functional; conditions: Homo sapiens, time 48 hrs
Description: Growth inhibition of human HCT-15 cells incubated for 48 hrs by sulforhodamine B assay

SNB-75 = test: cells; format: functional; conditions: Homo sapiens, time 48 hrs
Description: Growth inhibition of human SNB-75 cells incubated for 48 hrs by sulforhodamine B assay

[4] = molecular target: Proto-oncogene tyrosine-protein kinase ROS (Homo sapiens) (UniProt P08922); test: Inhibition of recombinant N-terminal His6-tagged human ROS (1883 to end residues) expressed in baculovirus infected Sf21 insect cells at 10 uM relative to control
[5] = molecular target: Rho-associated protein kinase 1 (Homo sapiens) (UniProt Q13464); test: Inhibition of auto-activated recombinant N-terminal His6-tagged human ROCK1 (17 to 535 residues) expressed in baculovirus infected Sf21 insect cells at 10 uM incubated in presence of Mg/ATP relative to control
UO-31 = test: cells; format: functional; conditions: Homo sapiens, time 48 hrs
Description: Growth inhibition of human UO-31 cells incubated for 48 hrs by sulforhodamine B assay

NCI-H522 = test: cells; format: functional; conditions: Homo sapiens, time 48 hrs
Description: Growth inhibition of human NCI-H522 cells incubated for 48 hrs by sulforhodamine B assay

SR = test: cells; format: functional; conditions: Homo sapiens, time 48 hrs
Description: Growth inhibition of human SR cells incubated for 48 hrs by sulforhodamine B assay

[6] = molecular target: ALK tyrosine kinase receptor (Homo sapiens) (UniProt Q9UM73); test: Inhibition of N-terminal His6-tagged human recombinant ALK (1058 to end residues) expressed in baculovirus infected Sf21 cells assessed as residual activity at 10 uM relative to control
[7] = molecular target: Serine/threonine-protein kinase Sgk1 (Homo sapiens) (UniProt O00141); test: Inhibition of human SGK1 at 10 uM relative to control; conditions: Sf21
A498 = test: cells; format: functional; conditions: Homo sapiens, time 48 hrs
Description: Growth inhibition of human A498 cells incubated for 48 hrs by sulforhodamine B assay

HOP-62 = test: cells; format: functional; conditions: Homo sapiens, time 48 hrs
Description: Growth inhibition of human HOP-62 cells incubated for 48 hrs by sulforhodamine B assay

[8] = molecular target: Inhibitor of nuclear factor kappa-B kinase subunit alpha (Homo sapiens) (UniProt O15111); test: Inhibition of human IKKalpha at 10 uM relative to control
[9] = molecular target: Ribosomal protein S6 kinase alpha-1 (Homo sapiens) (UniProt Q15418); test: Inhibition of recombinant full length N-terminal His6-tagged human RSK1 expressed in Sf21 insect cells at 10 uM relative to control
[10] = molecular target: Cyclin-dependent kinase 2/cyclin E1 (Homo sapiens) (UniProt P24864+P24941); test: Inhibition of full length C-terminal His6-tagged human CDK2/full length N-terminal GST-tagged human Cyclin E expressed in baculovirus infected Sf21 insect cells assessed as residual activity at 10 uM relative to control
[11] = tested on: Panel ovarian (Carcinoma cell lines); test: cells; format: functional; conditions: Homo sapiens, time 48 hrs
Description: Growth inhibition of human Panel ovarian (Carcinoma cell lines) incubated for 48 hrs by sulforhodamine B assay

[12] = molecular target: Fibroblast growth factor receptor 3 (Homo sapiens) (UniProt P22607); test: Inhibition of N-terminal His6-tagged human FGFR3 (447 to 761 residues) expressed in Sf21 cells assessed as residual activity at 10 uM relative to control
[13] = Cytotoxicity against human HFF-1 cells assessed as cell growth inhibition at 1 uM by MTT assay relative to control; format: cell-based; conditions: read-out: GI
LOX IMVI [14] = test: cells; format: functional; conditions: Homo sapiens, time 48 hrs
Description: Growth inhibition of human LOX IMVI cells incubated for 48 hrs by sulforhodamine B assay

[15] = molecular target: Platelet-derived growth factor receptor beta (Homo sapiens) (UniProt P09619); test: Inhibition of recombinant N-terminal His6-tagged human PDGFRbeta (557 to end residues) expressed in baculovirus infected Sf21 insect cells at 10 uM relative to control
MDA-MB-468 = test: cells; format: functional; conditions: Homo sapiens, time 48 hrs
Description: Growth inhibition of human MDA-MB-468 cells incubated for 48 hrs by sulforhodamine B assay

[16] = molecular target: RAF proto-oncogene serine/threonine-protein kinase (Homo sapiens) (UniProt P04049); test: Inhibition of recombinant N-terminal GST-tagged human CRAF (306 to 648 residues) expressed in Sf9 cells assessed as residual activity at 10 uM relative to control
[17] = molecular target: Fibroblast growth factor receptor 2 (Homo sapiens) (UniProt P21802); test: Inhibition of N-terminal His6-tagged human FGFR2 (456 to 770 residues) expressed in baculovirus-infected Sf21 cells assessed as residual activity at 10 uM relative to control
[18] = molecular target: Aurora kinase A (Homo sapiens) (UniProt O14965); test: Inhibition of human recombinant Aurora A assessed as residual activity at 10 uM relative to control
[19] = tested on: Panel melanoma (Carcinoma cell lines); test: cells; format: functional; conditions: Homo sapiens, time 48 hrs
Description: Growth inhibition of human Panel melanoma (Carcinoma cell lines) incubated for 48 hrs by sulforhodamine B assay

[20] = tested on: PI3-kinase p110-alpha/p85-alpha (Homo sapiens), P27986+P42336 [E545K]; test: Inhibition of p110alpha/p85alpha E545K mutant (unknown origin) at 10 uM relative to control; format: protein-complex assay
[21] = molecular target: T1, High affinity nerve growth factor receptor; test: Inhibition of recombinant N-terminal His6-tagged human TrkA (440 to end residues) expressed in baculovirus infected Sf21 insect cells at 10 uM relative to control
Target sequence in this assay (P04629 33-796 limits assumed): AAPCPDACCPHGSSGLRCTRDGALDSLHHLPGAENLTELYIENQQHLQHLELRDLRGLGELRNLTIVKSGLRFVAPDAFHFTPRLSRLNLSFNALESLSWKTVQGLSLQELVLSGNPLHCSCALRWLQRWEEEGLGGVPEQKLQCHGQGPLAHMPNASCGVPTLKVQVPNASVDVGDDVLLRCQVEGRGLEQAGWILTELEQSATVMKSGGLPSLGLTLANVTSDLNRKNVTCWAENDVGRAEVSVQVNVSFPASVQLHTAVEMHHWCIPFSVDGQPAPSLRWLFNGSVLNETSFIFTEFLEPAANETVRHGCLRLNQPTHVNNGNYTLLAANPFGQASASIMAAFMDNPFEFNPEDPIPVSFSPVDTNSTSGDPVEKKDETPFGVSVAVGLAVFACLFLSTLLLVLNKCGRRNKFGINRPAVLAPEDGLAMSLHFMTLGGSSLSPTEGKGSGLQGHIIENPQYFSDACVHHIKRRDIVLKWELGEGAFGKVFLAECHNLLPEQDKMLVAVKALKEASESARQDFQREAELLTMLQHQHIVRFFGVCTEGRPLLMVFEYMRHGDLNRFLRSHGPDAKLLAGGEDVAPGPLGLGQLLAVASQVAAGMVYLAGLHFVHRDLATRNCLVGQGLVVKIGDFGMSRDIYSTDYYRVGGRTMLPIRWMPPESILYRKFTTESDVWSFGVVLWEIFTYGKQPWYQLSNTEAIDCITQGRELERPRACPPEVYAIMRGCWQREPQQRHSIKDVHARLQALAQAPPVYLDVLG

[22] = tested on: Panel renal (Carcinoma cell lines); test: cells; format: functional; conditions: Homo sapiens, time 48 hrs
Description: Growth inhibition of human Panel renal (Carcinoma cell lines) incubated for 48 hrs by sulforhodamine B assay

UACC-257 = test: cells; format: functional; conditions: Homo sapiens, time 48 hrs
Description: Growth inhibition of human UACC-257 cells incubated for 48 hrs by sulforhodamine B assay

[23] = molecular target: Proto-oncogene tyrosine-protein kinase receptor Ret (Homo sapiens) (UniProt P07949); test: Inhibition of recombinant N-terminal GST-tagged human RET (658 to end residues) expressed in baculovirus infected Sf21 insect cells at 10 uM relative to control
[24] = molecular target: Ephrin type-B receptor 2 (Homo sapiens) (UniProt P29323); test: Inhibition of N-terminal His6-tagged human EphB2 (560 to end residues) expressed in baculovirus-infected Sf21 cells assessed as residual activity at 10 uM relative to control
[25] = tested on: PI3-kinase p110-alpha/p85-alpha (Homo sapiens), P27986+P42336 [H1047R]; test: Inhibition of p110alpha/p85alpha H1047R mutant (unknown origin) at 10 uM relative to control; format: protein-complex assay
[26] = Cytotoxicity against human HFF-1 cells assessed as cell growth inhibition at 0.1 uM by MTT assay relative to control; format: cell-based; conditions: read-out: GI
HT-29 = test: cells; format: functional; conditions: Homo sapiens, time 48 hrs
Description: Growth inhibition of human HT-29 cells incubated for 48 hrs by sulforhodamine B assay

MDA-MB-231 = test: cells; format: functional; conditions: Homo sapiens, time 48 hrs
Description: Growth inhibition of human MDA-MB-231/ATCC cells incubated for 48 hrs by sulforhodamine B assay

KM12 = test: cells; format: functional; conditions: Homo sapiens, time 48 hrs
Description: Growth inhibition of human KM12 cells incubated for 48 hrs by sulforhodamine B assay

Fibroblast growth factor receptor 2 (Homo sapiens), sequence (P21802 22-821 limits assumed): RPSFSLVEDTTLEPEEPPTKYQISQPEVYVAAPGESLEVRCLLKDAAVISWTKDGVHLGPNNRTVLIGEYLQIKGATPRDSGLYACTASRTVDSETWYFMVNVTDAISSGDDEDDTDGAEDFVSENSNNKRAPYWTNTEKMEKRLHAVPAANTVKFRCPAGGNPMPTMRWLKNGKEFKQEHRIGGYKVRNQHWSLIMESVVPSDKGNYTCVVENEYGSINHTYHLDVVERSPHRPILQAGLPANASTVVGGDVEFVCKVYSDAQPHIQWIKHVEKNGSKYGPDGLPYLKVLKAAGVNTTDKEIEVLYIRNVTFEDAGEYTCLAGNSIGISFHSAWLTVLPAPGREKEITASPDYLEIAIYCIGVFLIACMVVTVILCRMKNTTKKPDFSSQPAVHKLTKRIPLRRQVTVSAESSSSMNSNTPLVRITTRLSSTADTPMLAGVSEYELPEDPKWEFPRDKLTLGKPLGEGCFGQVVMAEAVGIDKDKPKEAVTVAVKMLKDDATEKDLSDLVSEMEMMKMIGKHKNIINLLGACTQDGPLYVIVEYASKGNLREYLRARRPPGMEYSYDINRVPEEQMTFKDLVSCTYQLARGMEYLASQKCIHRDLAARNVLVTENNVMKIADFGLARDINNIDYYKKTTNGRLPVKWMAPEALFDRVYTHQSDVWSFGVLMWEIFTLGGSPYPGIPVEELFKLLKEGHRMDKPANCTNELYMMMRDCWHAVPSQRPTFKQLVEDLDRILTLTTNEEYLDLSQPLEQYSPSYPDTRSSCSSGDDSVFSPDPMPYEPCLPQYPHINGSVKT
Ephrin type-B receptor 4 (Homo sapiens), sequence (P54760 whole entry): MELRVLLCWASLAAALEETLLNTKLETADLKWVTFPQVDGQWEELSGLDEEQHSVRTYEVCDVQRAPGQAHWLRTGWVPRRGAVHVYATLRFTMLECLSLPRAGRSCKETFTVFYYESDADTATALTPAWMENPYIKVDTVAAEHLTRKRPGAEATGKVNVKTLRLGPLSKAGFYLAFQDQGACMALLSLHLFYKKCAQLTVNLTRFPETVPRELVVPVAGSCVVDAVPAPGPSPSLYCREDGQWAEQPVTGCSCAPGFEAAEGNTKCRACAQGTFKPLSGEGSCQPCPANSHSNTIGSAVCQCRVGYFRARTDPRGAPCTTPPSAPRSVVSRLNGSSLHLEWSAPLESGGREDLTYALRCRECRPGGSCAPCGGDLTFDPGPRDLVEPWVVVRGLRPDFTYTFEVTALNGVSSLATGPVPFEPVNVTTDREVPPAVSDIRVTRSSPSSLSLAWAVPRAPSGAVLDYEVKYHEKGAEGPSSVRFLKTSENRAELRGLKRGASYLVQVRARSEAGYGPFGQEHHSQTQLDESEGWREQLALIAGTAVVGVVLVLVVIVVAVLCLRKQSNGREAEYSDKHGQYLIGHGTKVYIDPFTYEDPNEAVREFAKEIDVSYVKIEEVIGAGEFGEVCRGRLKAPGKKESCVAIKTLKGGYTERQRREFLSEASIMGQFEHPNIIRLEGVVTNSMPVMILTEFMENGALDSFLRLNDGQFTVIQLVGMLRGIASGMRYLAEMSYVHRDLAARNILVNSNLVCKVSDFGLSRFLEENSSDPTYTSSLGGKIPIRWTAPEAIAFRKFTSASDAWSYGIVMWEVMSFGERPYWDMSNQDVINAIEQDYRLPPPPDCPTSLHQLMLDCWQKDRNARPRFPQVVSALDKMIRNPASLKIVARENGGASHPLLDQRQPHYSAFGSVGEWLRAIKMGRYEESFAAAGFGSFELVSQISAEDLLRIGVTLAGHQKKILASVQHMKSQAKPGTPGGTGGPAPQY
Serine/threonine-protein kinase Sgk1 (Homo sapiens), sequence (O00141 whole entry): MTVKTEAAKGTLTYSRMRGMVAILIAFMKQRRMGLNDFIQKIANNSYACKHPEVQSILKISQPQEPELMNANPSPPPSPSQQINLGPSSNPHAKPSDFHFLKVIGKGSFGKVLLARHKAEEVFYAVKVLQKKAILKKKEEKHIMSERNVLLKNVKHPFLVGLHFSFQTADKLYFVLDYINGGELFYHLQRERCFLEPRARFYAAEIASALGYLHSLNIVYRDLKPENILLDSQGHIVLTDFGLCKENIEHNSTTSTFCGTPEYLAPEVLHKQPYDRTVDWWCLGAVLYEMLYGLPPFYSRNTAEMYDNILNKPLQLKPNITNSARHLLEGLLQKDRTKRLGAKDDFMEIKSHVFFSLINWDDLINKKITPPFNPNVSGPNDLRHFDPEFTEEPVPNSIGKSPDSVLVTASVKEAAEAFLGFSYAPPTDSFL
Inhibitor of nuclear factor kappa-B kinase subunit alpha (Homo sapiens), sequence (O15111 whole entry): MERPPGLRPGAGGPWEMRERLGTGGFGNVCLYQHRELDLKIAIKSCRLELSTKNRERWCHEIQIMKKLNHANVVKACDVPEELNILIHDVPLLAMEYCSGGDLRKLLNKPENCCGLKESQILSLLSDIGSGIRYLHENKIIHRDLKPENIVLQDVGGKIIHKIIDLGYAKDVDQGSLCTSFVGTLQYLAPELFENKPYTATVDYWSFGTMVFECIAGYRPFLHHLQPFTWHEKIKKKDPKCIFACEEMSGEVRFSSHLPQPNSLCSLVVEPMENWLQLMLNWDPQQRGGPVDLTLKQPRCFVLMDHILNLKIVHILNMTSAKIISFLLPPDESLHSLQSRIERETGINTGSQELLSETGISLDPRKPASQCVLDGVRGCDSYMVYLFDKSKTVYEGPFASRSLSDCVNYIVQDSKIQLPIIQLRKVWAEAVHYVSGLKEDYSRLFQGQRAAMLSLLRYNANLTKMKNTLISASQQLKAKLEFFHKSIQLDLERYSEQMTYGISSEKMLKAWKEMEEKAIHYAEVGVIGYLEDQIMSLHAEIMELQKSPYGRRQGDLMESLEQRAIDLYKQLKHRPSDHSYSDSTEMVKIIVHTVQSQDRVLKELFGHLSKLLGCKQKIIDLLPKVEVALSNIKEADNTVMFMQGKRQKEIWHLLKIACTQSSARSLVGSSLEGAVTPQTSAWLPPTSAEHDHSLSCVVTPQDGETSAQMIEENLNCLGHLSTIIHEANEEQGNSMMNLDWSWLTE
Ephrin type-B receptor 2 (Homo sapiens), sequence (P29323 whole entry): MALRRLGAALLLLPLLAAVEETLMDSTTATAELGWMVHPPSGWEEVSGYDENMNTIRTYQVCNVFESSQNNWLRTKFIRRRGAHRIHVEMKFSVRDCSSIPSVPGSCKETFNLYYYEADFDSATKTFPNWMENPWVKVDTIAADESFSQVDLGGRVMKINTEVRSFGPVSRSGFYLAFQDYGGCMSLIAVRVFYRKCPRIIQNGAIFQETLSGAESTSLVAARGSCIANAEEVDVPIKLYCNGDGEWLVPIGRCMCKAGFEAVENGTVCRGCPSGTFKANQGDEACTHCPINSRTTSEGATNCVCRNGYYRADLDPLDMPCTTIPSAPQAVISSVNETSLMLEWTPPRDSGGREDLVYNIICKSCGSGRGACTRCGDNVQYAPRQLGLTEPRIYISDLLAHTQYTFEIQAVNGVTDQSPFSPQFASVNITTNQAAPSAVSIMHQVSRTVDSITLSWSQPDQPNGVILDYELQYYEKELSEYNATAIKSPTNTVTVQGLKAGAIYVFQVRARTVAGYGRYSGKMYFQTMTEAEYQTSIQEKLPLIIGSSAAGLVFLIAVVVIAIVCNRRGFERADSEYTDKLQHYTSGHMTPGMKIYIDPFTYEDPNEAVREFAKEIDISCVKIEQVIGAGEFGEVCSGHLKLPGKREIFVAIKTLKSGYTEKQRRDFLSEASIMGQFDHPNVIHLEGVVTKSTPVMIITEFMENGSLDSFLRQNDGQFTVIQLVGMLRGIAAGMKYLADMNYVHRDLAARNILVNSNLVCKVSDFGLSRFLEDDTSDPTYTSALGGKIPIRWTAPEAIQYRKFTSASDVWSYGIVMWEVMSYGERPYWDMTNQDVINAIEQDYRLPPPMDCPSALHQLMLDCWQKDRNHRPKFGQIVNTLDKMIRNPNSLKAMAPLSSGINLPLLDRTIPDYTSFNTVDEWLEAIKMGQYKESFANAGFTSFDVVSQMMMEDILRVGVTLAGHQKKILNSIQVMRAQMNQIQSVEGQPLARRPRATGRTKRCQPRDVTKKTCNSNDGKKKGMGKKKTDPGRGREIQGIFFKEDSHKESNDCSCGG

CN1CCN(CCCOc2cccc3nc(Nc4ccc(Cl)c(C(F)(F)F)c4)ccc23)CC1
GI50 (U-251): 1490 nM
growth at 10 µM (LOX IMVI [1]): -5.77%
inhibition [2]: < 60%
IC50 [3]: 2520 nM
GI50 (HCT-15): 1220 nM
GI50 (SNB-75): 1520 nM
inhibition [4]: < 60%
inhibition [5]: < 60%
GI50 (UO-31): 1460 nM
GI50 (NCI-H522): 1830 nM
GI50 (SR): 540 nM
Activity [6]: < 60%
inhibition [7]: < 60%
GI50 (A498): 1680 nM
GI50 (HOP-62): 1700 nM
inhibition [8]: < 60%
inhibition [9]: < 60%
Activity [10]: < 60%
GI50 [11]: 1980 nM
LC50 [11]: 10300 nM
TGI [11]: 4180 nM
Activity [12]: < 60%
inhibition at 1 µM [13]: 12.7%
GI50 (LOX IMVI [14]): 1560 nM
inhibition [15]: < 60%
GI50 (MDA-MB-468): 1600 nM
Activity [16]: < 60%
Activity [17]: < 60%
Activity [18]: < 60%
GI50 [19]: 1710 nM
LC50 [19]: 6700 nM
TGI [19]: 3380 nM
inhibition [20]: < 60%
inhibition [21]: 96%
GI50 [22]: 1620 nM
LC50 (lethal concentration 50%) [22]: 6460 nM
TGI [22]: 3230 nM
GI50 (UACC-257): 1720 nM
inhibition [23]: < 60%
Activity [24]: < 60%
inhibition [25]: < 60%
inhibition at 0.1 µM [26]: 6.07%
GI50 (HT-29): 1120 nM
GI50 (MDA-MB-231): 1470 nM
GI50 (KM12): 1740 nM
